# Reference: PubChem BioAssay (NCI)
#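 A five-concentration, 48-hour dose response in 96-well plates underlies each endpoint, interpolated linearly between surrounding concentrations. Definition used: TGI = concentration required for complete inhibition of growth.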
# Assays:
# Test in all cases: NCI-60 cell line screen, 48 h
# [1] = system: KM20L2 colon
# [2] = system: KM12 colon
# [3] = system: OVCAR-3 ovarian
# [4] = system: IGROV1 ovarian
# [5] = system: TK-10 renal
# [6] = system: XF 498 CNS
# [7] = system: HCC-2998 colon
# [8] = system: RPMI-8226 leukemia
# [9] = system: SK-MEL-5 melanoma
# [10] = system: A549 NSCLC
# [11] = system: EKVX NSCLC
# [12] = system: UO-31 renal
# [13] = system: M14 melanoma
# [14] = system: UACC-62 melanoma
# [15] = system: SW-620 colon
# [16] = system: DLD-1 colon
# [17] = system: ACHN renal
# [18] = system: MALME-3M melanoma
# [19] = system: SF-268 CNS
# [20] = system: COLO 205 colon
# [21] = system: OVCAR-5 ovarian
# [22] = system: HOP-18 NSCLC
# [23] = system: SF-539 CNS
# [24] = system: NCI-H460 lung
# [25] = system: NCI-H522 lung
# [26] = system: HT29 colon
# [27] = system: SK-MEL-28 melanoma
# [28] = system: CAKI-1 renal
# [29] = system: HCT-15 colon
# [30] = system: SR leukemia
# [31] = system: LOX IMVI melanoma
# [32] = system: OVCAR-8 ovarian
# [33] = system: SK-MEL-2 melanoma
# [34] = system: NCI-H23 lung
# [35] = system: DMS 273 small cell lung
# [36] = system: U251 CNS
# [37] = system: CCRF-CEM leukemia
# [38] = system: RXF 393 renal
# [39] = system: M19-MEL melanoma
# [40] = system: HOP-62 NSCLC
# [41] = system: OVCAR-4 ovarian
# [42] = system: LXFL 529 NSCLC
# [43] = system: HCT-116 colon
# [44] = system: MOLT-4 leukemia
# [45] = system: DMS 114 small cell lung
# [46] = system: SN12C renal
# [47] = system: SNB-78 CNS
# [48] = system: SK-OV-3 ovarian
# [49] = system: UACC-257 melanoma
# [50] = system: HL-60(TB) leukemia
# [51] = system: 786-0 renal
# [52] = system: SNB-75 CNS
# [53] = system: SNB-19 CNS
# [54] = system: HOP-92 NSCLC
# [55] = system: SF-295 CNS
# [56] = system: NCI-H226 lung
# [57] = system: A498 renal
# [58] = system: K-562 leukemia
structure (smiles),measurement,setting,value
COc1c2c(c3ccccc3c1O)C1C=CC2C1 (centres undefined),TGI,[1],45.7 µM
same,TGI,[2],31.4 µM
same,TGI,[3],27.6 µM
same,TGI,[4],39 µM
same,TGI,[5],36.8 µM
same,TGI,[6],27.9 µM
same,TGI,[7],29.7 µM
same,TGI,[8],> 100 µM
same,TGI,[9],19.1 µM
same,TGI,[10],36.6 µM
same,TGI,[11],33 µM
same,TGI,[12],17.6 µM
same,TGI,[13],27.9 µM
same,TGI,[14],30.4 µM
same,TGI,[15],34.3 µM
same,TGI,[16],31.6 µM
same,TGI,[17],27.5 µM
same,TGI,[18],18.8 µM
same,TGI,[19],33.7 µM
same,TGI,[20],30.1 µM
same,TGI,[21],33.9 µM
same,TGI,[22],28.5 µM
same,TGI,[23],29 µM
same,TGI,[24],34 µM
same,TGI,[25],29.3 µM
same,TGI,[26],39.2 µM
same,TGI,[27],37.9 µM
same,TGI,[28],30.8 µM
same,TGI,[29],22 µM
same,TGI,[30],68.4 µM
same,TGI,[31],17.1 µM
same,TGI,[32],28.7 µM
same,TGI,[33],31.5 µM
same,TGI,[34],28.9 µM
same,TGI,[35],30.3 µM
same,TGI,[36],23.9 µM
same,TGI,[37],97.6 µM
same,TGI,[38],28.9 µM
same,TGI,[39],5.46 µM
same,TGI,[40],29.7 µM
same,TGI,[41],28.7 µM
same,TGI,[42],14.7 µM
same,TGI,[43],14.6 µM
same,TGI,[44],47.2 µM
same,TGI,[45],19.6 µM
same,TGI,[46],28.5 µM
Cc1cc2c(C)n(Cc3ccccc3Cl)nc2c(C(=O)O)c1C,TGI,[1],> 100 µM
same,TGI,[3],> 100 µM
same,TGI,[47],> 100 µM
same,TGI,[4],> 100 µM
same,TGI,[5],> 100 µM
same,TGI,[6],> 100 µM
same,TGI,[7],> 100 µM
same,TGI,[48],> 100 µM
same,TGI,[8],> 100 µM
same,TGI,[10],> 100 µM
same,TGI,[11],> 100 µM
same,TGI,[12],> 100 µM
same,TGI,[14],> 100 µM
same,TGI,[15],> 100 µM
same,TGI,[49],> 100 µM
same,TGI,[50],> 100 µM
same,TGI,[16],> 100 µM
same,TGI,[17],> 100 µM
same,TGI,[18],> 100 µM
same,TGI,[19],> 100 µM
same,TGI,[21],> 100 µM
same,TGI,[22],> 100 µM
same,TGI,[23],> 100 µM
same,TGI,[24],> 100 µM
same,TGI,[26],> 100 µM
same,TGI,[27],> 100 µM
same,TGI,[51],> 100 µM
same,TGI,[52],> 100 µM
same,TGI,[29],> 100 µM
same,TGI,[30],> 100 µM
same,TGI,[31],> 100 µM
same,TGI,[32],> 100 µM
same,TGI,[33],> 100 µM
same,TGI,[34],> 100 µM
same,TGI,[35],> 100 µM
same,TGI,[36],> 100 µM
same,TGI,[37],> 100 µM
same,TGI,[38],> 100 µM
same,TGI,[39],> 100 µM
same,TGI,[40],> 100 µM
same,TGI,[42],> 100 µM
same,TGI,[43],> 100 µM
same,TGI,[44],> 100 µM
same,TGI,[53],> 100 µM
same,TGI,[54],> 100 µM
same,TGI,[46],> 100 µM
same,TGI,[55],> 100 µM
same,TGI,[56],> 100 µM
COc1ccc([C@@H]2CC(=O)N2)cc1,TGI,[1],> 100 µM
same,TGI,[2],> 100 µM
same,TGI,[47],> 100 µM
same,TGI,[4],> 100 µM
same,TGI,[5],> 100 µM
same,TGI,[6],> 100 µM
same,TGI,[48],> 100 µM
same,TGI,[8],> 100 µM
same,TGI,[9],> 100 µM
same,TGI,[10],> 100 µM
same,TGI,[11],> 100 µM
same,TGI,[12],> 100 µM
same,TGI,[13],> 100 µM
same,TGI,[14],> 100 µM
same,TGI,[49],> 100 µM
same,TGI,[50],> 100 µM
same,TGI,[16],> 100 µM
same,TGI,[17],> 100 µM
same,TGI,[18],> 100 µM
same,TGI,[19],> 100 µM
same,TGI,[20],> 100 µM
same,TGI,[57],> 100 µM
same,TGI,[21],> 100 µM
same,TGI,[22],> 100 µM
same,TGI,[23],> 100 µM
same,TGI,[24],> 100 µM
same,TGI,[25],> 100 µM
same,TGI,[26],> 100 µM
same,TGI,[27],> 100 µM
same,TGI,[28],> 100 µM
same,TGI,[51],> 100 µM
same,TGI,[52],> 100 µM
same,TGI,[29],> 100 µM
same,TGI,[30],> 100 µM
same,TGI,[32],> 100 µM
same,TGI,[33],> 100 µM
same,TGI,[34],> 100 µM
same,TGI,[35],> 100 µM
same,TGI,[36],> 100 µM
same,TGI,[37],> 100 µM
same,TGI,[38],> 100 µM
same,TGI,[40],> 100 µM
same,TGI,[41],> 100 µM
same,TGI,[42],> 100 µM
same,TGI,[43],> 100 µM
same,TGI,[44],> 100 µM
same,TGI,[53],> 100 µM
same,TGI,[58],> 100 µM
same,TGI,[54],> 100 µM
same,TGI,[45],> 100 µM
same,TGI,[46],> 100 µM
same,TGI,[55],> 100 µM
same,TGI,[56],> 100 µM
O=C1C(c2ccc(Br)cc2)=[N+]([O-])c2ccccc21,TGI,[1],38.5 µM
same,TGI,[2],30.4 µM
same,TGI,[3],28.2 µM
same,TGI,[4],33.8 µM
same,TGI,[5],29.7 µM
same,TGI,[6],31.3 µM
same,TGI,[7],29.3 µM
same,TGI,[48],> 100 µM
same,TGI,[8],> 100 µM
same,TGI,[9],21.6 µM
same,TGI,[10],41.2 µM
same,TGI,[11],29.5 µM
same,TGI,[12],38.7 µM
same,TGI,[13],29.8 µM
same,TGI,[14],29.7 µM
same,TGI,[15],41.5 µM
same,TGI,[49],24.7 µM
same,TGI,[50],12.4 µM
same,TGI,[16],25 µM
same,TGI,[17],26.2 µM
same,TGI,[18],32.7 µM
same,TGI,[19],32.3 µM
same,TGI,[20],32.2 µM
same,TGI,[57],56.1 µM
same,TGI,[21],35.5 µM
same,TGI,[22],27.3 µM
same,TGI,[23],34.7 µM
same,TGI,[24],34.8 µM
same,TGI,[25],11.8 µM
same,TGI,[26],43.8 µM
same,TGI,[27],35.2 µM
same,TGI,[51],30.9 µM
same,TGI,[52],31.4 µM
same,TGI,[29],23.7 µM
same,TGI,[31],21.7 µM
same,TGI,[32],25.1 µM
same,TGI,[33],57.6 µM
same,TGI,[34],30.4 µM
same,TGI,[36],27.9 µM
same,TGI,[37],22.6 µM
same,TGI,[38],31.4 µM
same,TGI,[39],22.3 µM
same,TGI,[40],68.8 µM
same,TGI,[42],18.8 µM
same,TGI,[43],27.5 µM
same,TGI,[44],26.6 µM
same,TGI,[53],42.3 µM
same,TGI,[58],33.5 µM
same,TGI,[54],20.1 µM
same,TGI,[45],12.2 µM
same,TGI,[46],29.6 µM
same,TGI,[56],35.3 µM
